Results published in article PMC7619385 (ACS infectious diseases, 2025).
Read-outs that look alike come from different tables or passages of the source.

Columns and labels:
[1] = tested on: L. mexicana promastigotes; assay: Promastigote viability (Alamar Blue/resazurin); type: cell-based; conditions: Leishmania mexicana
Procedure: Next, we evaluated GZD824 ability to reduce the viability of L. mexicana promastigotes by monitoring the reduction of resazurin (Alamar Blue).[31]
(§1) L. mexicana (strain MNYC/BZ/62/M379) promastigotes were cultivated in medium 199 (M199) (Earle’s Salts - Gibco) supplemented with 10% (v/v) heat-inactivated fetal calf serum (HIFCS – Cultilab) and 1% Penicillin/Streptomycin solution (Sigma-Aldrich) at 26 °C. Phenotypic drug response assays in null mutant and point-mutation mutant lines were performed in HOMEM supplemented with 10% (v/v) heat-inactivated fetal calf serum (HIFCS – Gibco). THP-1 monocytes were differentiated in adherent macrophages with 50 ng of PMA for 72 h at 37 °C and 5% CO2 before infection with stationary phase promastigotes (ratio 10 promastigotes:1 macrophage) for 6 h, followed by washing to remove non-internalized Leishmania. Infected macrophages were incubated at 34 °C and 5% CO2 for 48 h in RPMI (Gibco) supplemented with 10% HIFCS and 1% Penicillin/Streptomycin solution.
For evaluation of drug effect on promastigote and uninfected macrophage viability, cells were cultivated in the presence of test compounds for 24 h and incubated with 10% AlamarBlue™ Cell Viability Reagent (ThermoFisher) for 24 h before measuring fluorescence at λex 540 nm/λem 590 nm. Untreated cells (1% DMSO) were set as 100 % viable cells. Intracellular amastigotes were treated with compounds for 48 h. Slides with paraformaldehyde-fixed and DAPI-stained cells were imaged on a Zeiss AxioImager microscope – at least 200 macrophages per drug concentration and DMSO control. Experiments were performed in duplicate. The total number of amastigotes was normalized by the number of macrophages counted. For EC50 determination, the data was fitted to the sigmoidal dose-response (variable slope) equation in GraphPad Prism (v.9.1.0).

NLuc::LmxCLK1 = NLuc::LmxCLK1 (Leishmania mexicana, UniProt E9AMP2); assay: In-cell BRET target engagement in intracellular amastigotes expressing NLuc::LmxCLK1; type: cell-based
Procedure: as §1
in vitro BRET used purified NLuc-LmxCLK1 in Kinase Buffer (50 mM HEPES, 1 mM EGTA, 10 mM MgCl^2, 2 mM DTT and 0.01% Tween-20) aliquoted into 96-well plates (Greiner #655904). In cell BRET assays used engineered L. mexicana (promastigotes or intramacrophage amastigotes) expressing NLuc-LmxCLK1 in cell media aliquoted into 96-well plates (Greiner, #655083). For tracer titration experiments, BRET probes were serially diluted from 100% DMSO stocks – first in 100% DMSO to 100x final assay concentration, and then in Tracer Dilution Buffer (TDB - 12.5 mM HEPES, pH 7.5; 31.25% PEG 400) to 20x the final assay concentration. Serially diluted probes (5 µL) were added to 85 µL of cells in culture media or 85 µL of purified protein. Final well volumes were adjusted to 100 µL with sterile Opti-MEM™ I Reduced Serum Medium (Thermo-Scientific) – for wells containing cells; or Kinase Buffer - for wells containing purified protein. For tracer displacement assays, samples were prepared as above, but final volume was brought to 100 µL by addition of vehicle or serially-diluted test compounds. Final DMSO concentration in these assays was 1%. Plates were incubated for 30 min at 25 °C (purified protein and promastigotes) or 34 °C (intramacrophage amastigotes), and 50 µL of Promega cocktail containing furimazine and NLuc extracellular inhibitor (catalog #N2161) were added to each well. Light emissions at 460+10 nm (BRET donor) and at 610+20 nm (BRET acceptor) were sequentially recorded (integration time = 0.5 s, gain = 3600) using a luminometer (BMG LABTECH Clariostar or Biotek Synergy HT). BRET values are reported in milli-BRET (mBRET) units (mBU), obtained by dividing the acceptor luminescence by the donor luminescence and multiplying the result by a factor of 1,000. BRET values were converted to blank-corrected probe occupancies (%) according to equation [1]: (1) Probeoccupancy(%)=X−Z/Y−Z×100 where X = mBRET value in the presence of the test compound and the probe, Y = mBRET value in the presence of probe only, and Z = mBRET value in the absence of probe and test compound.

[2] = 48 h compound exposure, read-out: EC50 promastigote viability

Sequence of NLuc::LmxCLK1 (E9AMP2 entry or part of it): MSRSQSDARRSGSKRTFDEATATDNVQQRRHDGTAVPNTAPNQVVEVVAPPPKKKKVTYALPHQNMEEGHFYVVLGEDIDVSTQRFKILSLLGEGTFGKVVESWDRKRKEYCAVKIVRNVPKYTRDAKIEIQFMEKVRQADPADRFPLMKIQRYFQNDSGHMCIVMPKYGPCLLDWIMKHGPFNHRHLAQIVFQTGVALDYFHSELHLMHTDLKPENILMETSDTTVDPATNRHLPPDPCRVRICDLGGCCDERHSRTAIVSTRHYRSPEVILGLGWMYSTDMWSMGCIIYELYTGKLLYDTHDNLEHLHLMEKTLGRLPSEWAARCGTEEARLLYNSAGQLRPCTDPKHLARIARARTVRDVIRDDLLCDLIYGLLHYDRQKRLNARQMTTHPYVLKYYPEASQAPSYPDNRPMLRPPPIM

Question: Which EC50 [1, 2] does the source give for `C=CC(=O)Nc1cccc(Sc2nc(Nc3ccc(N4CCN(C)CC4)cc3)ncc2Cl)c1` [WZ8040] here?
Answer: 7.9 µM

Question: What about the EC50 ([1]; wild-type comparator of the overexpression experiment (Figure 6D), read-out: EC50 wild-type parasites) of the same compound?
Answer: 5.6 µM

Question: And the IC50 (NLuc::LmxCLK1)?
Answer: 7 µM

Question: What does the source list for `Cc1ccc(C(=O)Nc2ccc(CN3CCN(C)CC3)c(C(F)(F)F)c2)cc1C#Cc1cnc2[nH]ncc2c1` [GZD824]?
Answer: EC50 [1, 2]: 33 µM; IC50 (NLuc::LmxCLK1): 13 µM; Lower potency in intracellular amastigotes (NLuc::LmxCLK1; tracer displacement, versus promastigotes): ~ 3 fold
